Non-standard residues stand in square brackets, D forms with d. No end group written: not given here. pGlu = O=C1CC[C@@H](C(=O)O)N1
Columns and labels:
P. berghei = P. berghei infections in Anopheles stephensi (oocyst prevalence and intensity); format: in vivo, Plasmodium berghei; conditions: for Prevalence (proportion of infected mosquitoes), peptide: 50 µM peptide in gametocytaemic mouse blood fed to An. stephensi; for Intensity (mean number of oocysts, range in parentheses), peptide: 50 µM peptide, An. stephensi
Experimental: To assess the effects of AMPs on parasites in vivo, mouse blood containing P. berghei gametocytes was obtained by cardiac puncture and 475 µl was rapidly mixed with 25 µl (50 µM final concentration) of AMP. This mixture was fed to 100 nulliparous 3–5 day old female An. stephensi. A further 475 µl of blood from the same infection was mixed with 25 µl of distilled water to act as a control. Mosquitoes were maintained at 19°C for optimum parasite development. Between 30 and 50 mosquitoes were dissected after 10 days. Mosquito wing length, numbers of retained eggs and oocysts were recorded in triplicate experiments carried out on different mosquito cohorts.

P. berghei ookinetes = assay: P. berghei ookinete viability in vitro (erythrosin B); format: cell-based, Plasmodium berghei; conditions: for Average ookinete viability (3 reps), peptide / Reduction in ookinete viability: 30 min; for Reduction in ookinete viability: versus control
Experimental: Our primary aim was to target parasites in mosquitoes before they cross the midgut wall, therefore AMPs were first assessed for their ability to kill ookinetes in vitro. […] Ookinete cultures of P. berghei were established from gametocytaemic blood as previously described. Parasites were enriched using cold 0.17M ammonium chloride after 18 h of culture and washed thoroughly with PBS (phosphate buffered saline). Parasites were seeded in triplicate wells of a 96-well microtitre plate at a density of 1×10^5/ml in a volume of 47.5 µl Schneider's insect medium (Invitrogen) with 2.5 µl of the test AMP (final concentration of 50 µM). Ookinetes were incubated for 30 min in conjunction with triplicate control wells containing medium with 2.5 µl of water instead of AMP. A sub-sample of parasites was then added to an equal volume of 5% erythrosin B to assess viability (150 ookinetes in total, taken from 3 wells). Each of the 33 AMPs was screened in this way and assays were performed 3 times. AMPs displaying a high degree of toxicity (>90% of ookinetes displaying erythrosin B staining) underwent further ookinete assays using a concentration of 100 µM AMP. To assess synergistic effects, combinations of two peptides were also tested at a concentration of 25 µM per AMP, in the assay described above.

[1] = tested on: Anopheles gambiae Sua 4.0 cells; assay: Sua 4.0 mosquito cell viability (erythrosin B exclusion); format: cell-based; set-up: dose or concentration left out as unconfirmed; conditions: after 48 h culture; for Average viability of cells (3 replicates), peptide: erythrosin B exclusion, 100 cells in triplicate wells; for Reduction in cell viability: versus control
Experimental: (§1) To establish potential effects of AMPs on mosquito cells, the An. gambiae Sua 4.0 cell line was used. This facilitated an initial high-throughput screening and provided insights into AMP toxicity, mode of action (lytic or other) and speed of action. Sua 4.0 cells were maintained at 27°C in Schneider's insect medium supplemented with 10% FBS (foetal bovine serum) in T25 culture flasks (Fisher, UK).
(§2) Each AMP was tested separately to establish if it affected cell viability and growth. […] Cells were maintained for 3, 6, 24 or 48 h, after which they were resuspended and a sub-sample from duplicate wells counted using a haemocytometer. To establish cell viability after 48 h (whether simply arrested in development or non-viable), resuspended cells were added to an equal volume of 5% erythrosin B vital dye and viable cells excluding the stain were counted. The viability of 100 cells in triplicate wells was recorded. Each AMP assay was performed in triplicate and included a negative control minus the peptide (5 µl of water alone added to the medium) and a further control of 5 µl of 10% SDS (sodium dodecyl sulphate) substituted for the AMP as this causes 100% cell lysis.

[2] = tested on: An. gambiae (Mali strain); assay: Mosquito oviposition after blood feed containing AMP; format: in vivo, Anopheles gambiae; conditions: for Significance of effect on oviposition: 50 µM AMP, one-way ANOVA, peptide vs control; for Mean no. of eggs laid per mosquito, peptide: after first feed with 50 µM AMP, eggs laid over two nights, averaged per surviving mosquito, 3 or 4 replicates
Experimental: (§3) Female An. gambiae (Mali strain, 3–5 days old) were used to establish the effects of AMPs on mosquito longevity and fecundity in the absence of confounding factors introduced with parasite infection. Two hundred 3–6 day old females were fed on human O+ whole blood supplemented with 50 µM AMP (or water control, 1 ml total volume) via feeding chambers of a Hemotek membrane feeding system. Fully engorged mosquitoes were randomly moved into four separate cages, each containing 25 mosquitoes, to facilitate monitoring. Mortality rates were recorded daily for a 10-day period, and oviposition sites were provided on the second and third night post-feeding. A second blood feed containing the same AMP was administered 7 days later to mimic the likelihood that mosquitoes would feed at least twice in the field during the development of sporogonic stages of the malaria parasite. Oviposition sites were again provided to assess fecundity through the number of eggs laid as an average per surviving mosquito. Assays for each AMP were repeated in triplicate on separate generations of mosquitoes. Due to egg retention under experimental conditions, egg production is best measured by dissecting mosquitoes that have not been provided with an oviposition site. However, this is not a feasible method of determining fecundity when longevity is also being measured.

[3] = tested on: Anopheles gambiae Sua 4.0 cells; assay: Sua 4.0 mosquito cell growth (cell counts); format: cell-based; conditions: 25 µM AMP; for Average number of cells over 3 replicates, peptide: seeded 30×10^4/ml, mean of 3 experiments
Experimental: as §1, §2

[4] = tested on: An. gambiae (Mali strain); assay: Mosquito longevity after blood feeds containing AMP; format: in vivo, Anopheles gambiae; conditions: for Significance of effect on longevity over 10 days: 50 µM AMP, Kaplan-Meier, Wilcoxon, peptide vs control; for Percent alive, peptide: over 10 days, 50 µM AMP in human blood, feeds on days 0 and 7, 3 or 4 replicates
Experimental: as §3

P. falciparum = assay: Field P. falciparum from gametocyte carriers membrane-fed to An. gambiae (Mali); format: in vivo, Plasmodium falciparum; conditions: Replicate 1, 50 µM; for Oocyst prevalence (oocyst positive mosquitoes), peptide: blood of gametocyte carriers, progeny of field An. gambiae; for Oocyst intensity (mean number of oocysts per gut, range in parentheses), peptide: field parasites and mosquitoes
Excerpt: Nyaganabougou, a village approximately 60 km south-west of the Malian capital, Bamako, was used as a site for the source of donors of malaria-infected blood. Due to its proximity to the river Niger, which provides perennial mosquito breeding sites, Nyaganabougou has high numbers of infected individuals and an extended transmission season. Mosquitoes used to establish the An. gambiae Mali colony used for this study were originally collected in the village of Kenieroba (a distance of 15 km from Nyaganabougou). Potential male and female gametocyte carriers between the ages of 6–10 were screened by thick smear and parasite species and density determined by local staff, led by Saibou Doumbia.
Gametocyte carriers were taken to the Malaria Research and Training Centre at the University of Bamako for blood donation. Approximately 4 ml of blood was extracted from carriers and immediately divided into 3 Hemotek membrane feeders for testing 2 separate AMPs and one control for each carrier. Peptides were added to 950 µl of gametocytaemic blood for a final concentration of 50 µM. All parasite-positive individuals were subsequently treated appropriately for parasites and associated symptoms, as determined by, and carried out by, local health workers in Nyaganabougou.
Approximately 120 adult female An. gambiae (Mali, 4–7 days old) were starved overnight, and allowed to feed on the gametocytaemic blood/AMP mix for 30 min. Engorged females were maintained on 10% glucose with 0.05% PABA for 8 days before dissection. No oviposition sites were provided so that fecundity could be measured by determining retained eggs. Mosquito wing length, numbers of retained eggs and oocysts were recorded, and triplicate peptide experiments were carried out on different mosquito cohorts, using blood from different donors. Where possible, a minimum of 50 mosquitoes were dissected for each condition.

[5] = 50 µM of single peptide, n = 150 ookinetes per treatment per replicate

“CKQSCSFGPFTFVCDGNTK (also: bicyclic or more (positions not given here)) [Duramycin, A lantibiotic from bacteria, 19 aa (Sigma D3168)]” was tested, and the “Prevalence (proportion of infected mosquitoes), peptide” value (P. berghei; Replicate 1) was 80% (50), the “Intensity (mean number of oocysts, range in parentheses), peptide” value (P. berghei; Replicate 1) was 17 (0–114) and the “Prevalence (proportion of infected mosquitoes), peptide” value (P. berghei; Replicate 2) was 88% (50). The “Intensity (mean number of oocysts, range in parentheses), peptide” value (P. berghei; Replicate 2) was 59 (0–294), the “Prevalence (proportion of infected mosquitoes), peptide” value (P. berghei; Replicate 3) was 98% (50) and the “Intensity (mean number of oocysts, range in parentheses), peptide” value (P. berghei; Replicate 3) was 135 (0–319). For the same compound, the “Average ookinete viability (3 reps), peptide” value (“Average ookinete viability” for short) (P. berghei ookinetes; [5]) was 11%, the “Reduction in ookinete viability” value (P. berghei ookinetes; 50 µM of single peptide) was 88% and the “Average ookinete viability” value (P. berghei ookinetes; 100 µM of single peptide) was 1%. The “Reduction in ookinete viability” value (P. berghei ookinetes; 100 µM of single peptide) was 99%, the “Average viability of cells (3 replicates), peptide” value [1] was 0% and the “Reduction in cell viability” value [1] was 100%. For the same compound, the “Significance of effect on oviposition” value [2] was “N/S”, the “Mean no. of eggs laid per mosquito, peptide” value [2] was 39 and the “Reduction in cell number (compared to control)” value (“Reduction in cell number” below) ([3]; 3 hrs in culture) was 42%. The “Average number of cells over 3 replicates, peptide” value ([3]; 3 hrs in culture, haemocytometer count of duplicate wells) was 180000 mL⁻¹, the “Reduction in cell number” value ([3]; 24 hrs in culture) was 73% and the “Average number of cells over 3 replicates, peptide” value ([3]; 24 hrs in culture) was 130000 mL⁻¹. For the same compound, the “Reduction in cell number” value ([3]; 48 hrs in culture) was 88%, the “Average number of cells over 3 replicates, peptide” value ([3]; 48 hrs in culture) was 90000 mL⁻¹ and the “Significance of effect on longevity over 10 days” value [4] was “N/S”. For the same compound, the “Percent alive, peptide” value [4] was 84%.

For CC[C@H](C)[C@H](N)C(=O)N[C@@H](CC(C)C)C(=O)N1CCC[C@H]1C(=O)N[C@@H](Cc1c[nH]c2ccccc12)C(=O)N[C@@H](CCCCN)C(=O)N[C@@H](Cc1c[nH]c2ccccc12)C(=O)N1CCC[C@H]1C(=O)N[C@@H](Cc1c[nH]c2ccccc12)C(=O)N[C@@H](Cc1c[nH]c2ccccc12)C(=O)N1CCC[C@H]1C(=O)N[C@@H](Cc1c[nH]c2ccccc12)C(=O)N[C@@H](CCCNC(=N)N)C(=O)N[C@@H](CCCNC(=N)N)C(N)=O [Indolicidin], the “Average viability of cells (3 replicates), peptide” value [1] was 61% and the “Reduction in cell viability” value [1] was 36%.

In the case of “RRWQWRMKKLG [Lactoferricin B, Product of pepsin cleavage of bovine lactoferrin]”, the “Oocyst prevalence (oocyst positive mosquitoes), peptide” value (P. falciparum) is reported as 46% (37) and the “Oocyst intensity (mean number of oocysts per gut, range in parentheses), peptide” value (P. falciparum) is reported as 2 (0–17).

With “GLLKRIKTLL [Anoplin, 10 aa peptide isolated from the solitary wasp, homology to Mastoparan X]” the “Prevalence (proportion of infected mosquitoes), peptide” value (P. berghei; Replicate 1) was 66% (44), the “Intensity (mean number of oocysts, range in parentheses), peptide” value (P. berghei; Replicate 1) was 21 (0–147) and the “Prevalence (proportion of infected mosquitoes), peptide” value (P. berghei; Replicate 2) was 98% (50). The “Intensity (mean number of oocysts, range in parentheses), peptide” value (P. berghei; Replicate 2) was 74 (0–580), the “Prevalence (proportion of infected mosquitoes), peptide” value (P. berghei; Replicate 3) was 100% (50) and the “Intensity (mean number of oocysts, range in parentheses), peptide” value (P. berghei; Replicate 3) was 177 (1–666). The “Average ookinete viability” value (P. berghei ookinetes; [5]) was 10%, the “Reduction in ookinete viability” value (P. berghei ookinetes; 50 µM of single peptide) was 89% and the “Average ookinete viability” value (P. berghei ookinetes; 100 µM of single peptide) was 2%. The “Reduction in ookinete viability” value (P. berghei ookinetes; 100 µM of single peptide) was 98%, the “Significance of effect on oviposition” value [2] was “N/S” and the “Mean no. of eggs laid per mosquito, peptide” value [2] was 36. For the same compound, the “Significance of effect on longevity over 10 days” value [4] was “N/S” and the “Percent alive, peptide” value [4] was 80%.

“[pGlu]GMIGTLTSKRIKQ [Levitide, Isolated from skin secretions of Xenopus laevis]” was tested, and the “Oocyst prevalence (oocyst positive mosquitoes), peptide” value (P. falciparum) was 8% (60) and the “Oocyst intensity (mean number of oocysts per gut, range in parentheses), peptide” value (P. falciparum) was <1 (0–1).

For Scorpine, the “Efficacy against malaria parasites (in words)” value (P. berghei ookinetes; in our hands, rodent or human malaria, test not specified further, actual concentration may have been lower than expected) was “not effective against rodent or human malaria”.

— PMC3836994, “Killer Bee Molecules: Antimicrobial Peptides as Effector Molecules to Target Sporogonic Stages of Plasmodium” (PLoS Pathogens, 2013)
